{
  "source": "patent US20200140489A1",
  "about": "(priority 2013, published 2020)",
  "key": {"[1]": {"target": "T1, AgrC-II (Staphylococcus aureus, UniProt O33587)", "T1 sequence (O33587 1-437)": "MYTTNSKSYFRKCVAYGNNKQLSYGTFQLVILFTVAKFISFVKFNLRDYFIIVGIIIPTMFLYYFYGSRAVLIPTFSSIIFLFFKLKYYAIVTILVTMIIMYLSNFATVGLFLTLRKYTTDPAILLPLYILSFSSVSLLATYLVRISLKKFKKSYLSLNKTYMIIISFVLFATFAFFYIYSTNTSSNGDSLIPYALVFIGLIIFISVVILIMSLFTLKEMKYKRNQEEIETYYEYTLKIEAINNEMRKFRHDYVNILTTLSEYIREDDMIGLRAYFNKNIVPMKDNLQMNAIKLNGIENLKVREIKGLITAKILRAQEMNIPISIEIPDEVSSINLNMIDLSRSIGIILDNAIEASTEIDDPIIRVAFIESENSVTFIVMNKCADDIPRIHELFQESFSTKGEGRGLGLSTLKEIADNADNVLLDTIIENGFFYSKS", "type": "cell-based, S. aureus", "settings": "for IC50: read-out: AgrC-II IC50, fluorescence reporter strain"}, "[2]": {"tested_on": "TSST-1 production in wild-type group-III S. aureus (MN8)", "type": "cell-based"}, "[3]": {"target": "T2, AgrC-III (Staphylococcus aureus, UniProt O33590)", "T2 sequence (O33590 1-425)": "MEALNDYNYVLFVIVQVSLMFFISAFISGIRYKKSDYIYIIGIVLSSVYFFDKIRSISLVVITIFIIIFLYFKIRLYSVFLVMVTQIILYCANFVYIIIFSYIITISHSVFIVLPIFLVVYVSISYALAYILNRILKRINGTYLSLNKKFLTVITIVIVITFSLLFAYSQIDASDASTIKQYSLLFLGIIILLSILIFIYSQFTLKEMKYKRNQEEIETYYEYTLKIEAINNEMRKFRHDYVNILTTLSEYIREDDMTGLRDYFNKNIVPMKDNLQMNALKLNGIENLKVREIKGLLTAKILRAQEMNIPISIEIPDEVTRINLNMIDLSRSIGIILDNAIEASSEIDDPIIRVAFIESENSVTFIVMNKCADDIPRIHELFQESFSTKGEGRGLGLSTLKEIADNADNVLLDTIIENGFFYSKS", "experiment": "Hemolysis assay, wild-type group-III strain MN8, rabbit red blood cells"}, "[4]": {"target": "T3, AgrC-I (Staphylococcus aureus, UniProt O07911)", "T3 sequence (O07911 1-430)": "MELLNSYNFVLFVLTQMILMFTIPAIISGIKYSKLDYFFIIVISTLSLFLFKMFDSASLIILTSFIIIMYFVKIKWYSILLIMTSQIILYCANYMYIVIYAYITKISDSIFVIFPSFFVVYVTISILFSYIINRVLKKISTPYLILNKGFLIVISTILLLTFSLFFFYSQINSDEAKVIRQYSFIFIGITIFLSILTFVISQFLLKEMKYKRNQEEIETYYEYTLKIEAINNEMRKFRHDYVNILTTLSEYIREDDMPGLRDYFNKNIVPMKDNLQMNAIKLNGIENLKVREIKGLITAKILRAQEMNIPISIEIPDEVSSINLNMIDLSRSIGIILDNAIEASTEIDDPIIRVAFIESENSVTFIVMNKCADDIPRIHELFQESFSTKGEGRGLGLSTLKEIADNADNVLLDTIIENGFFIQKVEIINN", "experiment": "Hemolysis assay, wild-type group-I strain RN6390B, rabbit red blood cells", "settings": "read-out: AgrC-I IC50; selected second-generation analogues, hemolysis assay; 200 fM − 10 μM"}, "[5]": {"target": "T1, AgrC-II", "experiment": "Hemolysis assay, wild-type group-II strain RN6923, rabbit red blood cells"}, "[6]": {"target": "T4, AgrC-IV (Staphylococcus aureus, UniProt Q309Z2)", "T4 sequence (Q309Z2 1-430)": "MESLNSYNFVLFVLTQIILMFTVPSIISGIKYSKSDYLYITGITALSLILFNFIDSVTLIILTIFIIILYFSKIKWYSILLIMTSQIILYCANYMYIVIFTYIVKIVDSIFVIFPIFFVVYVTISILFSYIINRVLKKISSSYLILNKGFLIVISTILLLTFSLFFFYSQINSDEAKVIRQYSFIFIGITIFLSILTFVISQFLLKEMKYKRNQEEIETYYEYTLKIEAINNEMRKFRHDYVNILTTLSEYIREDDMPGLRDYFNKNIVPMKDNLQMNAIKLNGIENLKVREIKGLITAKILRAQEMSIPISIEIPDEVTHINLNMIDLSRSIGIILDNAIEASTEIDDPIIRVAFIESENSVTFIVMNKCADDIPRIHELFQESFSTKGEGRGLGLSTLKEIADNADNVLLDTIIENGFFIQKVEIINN", "experiment": "Hemolysis assay, wild-type group-IV strain RN4850, rabbit red blood cells", "settings": "for IC50: read-out: AgrC-IV IC50, hemolysis assay, 200 fM − 10 μM"}, "[7]": {"target": "T3, AgrC-I", "type": "cell-based, S. aureus"}, "[8]": {"target": "T2, AgrC-III", "type": "cell-based, S. aureus"}, "[9]": {"target": "T4, AgrC-IV", "type": "cell-based, S. aureus"}, "[10]": {"target": "T2, AgrC-III", "settings": "read-out: AgrC-III EC50; β-lactamase reporter strain; 2.5 pM − 10 μM"}},
  "note": "Where two headings read alike, the source gives them in different places. Positions of bridges follow the written chain, without caps; N, C: chain ends. Non-standard residues stand in square brackets, D forms with d. Residues, ends and D or L forms follow the SMILES beside them. Nphe = O=C(O)CNCc1ccccc1",
  "data": [
    {"smiles": "CC(=O)N[C@H]1CSC(=O)[C@H](CC(C)C)NC(=O)[C@H](CC(C)C)NC(=O)[C@H](Cc2ccccc2)NC(=O)[C@H](C)NC1=O", "note": "[tAIP-III D2A, Ac-(C-A-F-L-L)] (Ac-CAFLL; thioester 1-C)", "values": [
      {"measurement": "IC50", "setting": "[1]; second-generation analogues, 200 fM − 10 μM", "result": 0.9, "unit": "nM"},
      {"measurement": "reduction of TSST-1 levels", "setting": "[2]", "result": 80, "unit": "%"},
      {"measurement": "IC50", "setting": "[3]; read-out: AgrC-III IC50, selected second-generation analogues, 200 fM − 10 μM", "result": 0.197, "unit": "nM"},
      {"measurement": "IC50", "setting": "[4]", "result": 0.332, "unit": "nM"},
      {"measurement": "IC50", "setting": "[5]; read-out: AgrC-II IC50, selected second-generation analogues, hemolysis assay, 200 fM − 10 μM", "result": 0.711, "unit": "nM"},
      {"measurement": "IC50", "setting": "[6]; selected second-generation analogues", "result": 0.306, "unit": "nM"}
    ]},
    {"smiles": "CC[C@H](C)[C@H](N)C(=O)N[C@@H](CC(N)=O)C(=O)N[C@H]1CSC(=O)[C@H](CC(C)C)NC(=O)[C@H](CC(C)C)NC(=O)CN(Cc2ccccc2)C(=O)[C@H](CC(=O)O)NC1=O", "note": "[AIP-III nF5, I-N-(C-D-nF-L-L)] (H-INCD[Nphe]LL; thioester 3-C)", "values": [
      {"measurement": "IC50", "setting": "[7]; read-out: AgrC-I IC50, fluorescence reporter strain, AIPs tested over 200 fM − 10 μM or (b1) 2.5 pM − 10 μM, triplicate", "result": 13.8, "unit": "nM"},
      {"measurement": "fold reduction of potency for AgrC-II versus AIP-III", "setting": "[1]; gfp reporter", "result": 13, "unit": "fold"},
      {"measurement": "IC50", "setting": "[1]; AIPs tested over 200 fM − 10 μM or (b1) 2.5 pM − 10 μM, triplicate", "result": 75.6, "unit": "nM"},
      {"measurement": "IC50", "setting": "[8]; read-out: AgrC-III IC50, fluorescence reporter strain, AIPs tested over 200 fM − 10 μM or (b1) 2.5 pM − 10 μM, triplicate", "result": "> 1000", "unit": "nM"},
      {"measurement": "fold increase of inhibitory activity relative to AIP-III", "setting": "[9]; gfp reporter, group-IV", "result": 10, "unit": "fold"},
      {"measurement": "IC50", "setting": "[9]; read-out: AgrC-IV IC50, fluorescence reporter strain, AIPs tested over 200 fM − 10 μM or (b1) 2.5 pM − 10 μM, triplicate", "result": 0.839, "unit": "nM"},
      {"measurement": "EC50", "setting": "[10]", "result": 202, "unit": "nM"}
    ]},
    {"smiles": "CC[C@H](C)[C@H](N)C(=O)N[C@@H](CC(N)=O)C(=O)N[C@H]1CSC(=O)[C@H](CC(C)C)NC(=O)[C@H](CC(C)C)NC(=O)[C@H](Cc2ccccc2)NC(=O)[C@H](C)NC1=O", "note": "[AIP-III D4A, I-N-(C-A-F-L-L)] (H-INCAFLL; thioester 3-C)", "values": [
      {"measurement": "fold increase of inhibitory activity relative to AIP-III", "setting": "[7]; gfp reporter, group-I", "result": "at least 10 fold"},
      {"measurement": "fold more active inhibitor than tAIP-I D2A", "setting": "[7]; gfp reporter, group-I", "result": "~10", "unit": "fold"},
      {"measurement": "fold increase of inhibitory activity relative to AIP-III", "setting": "[1]; gfp reporter, group-II", "result": "at least 10 fold"},
      {"measurement": "fold more active inhibitor than tAIP-I D2A", "setting": "[1]; gfp reporter, group-II", "result": "~10", "unit": "fold"},
      {"measurement": "fold increase of inhibitory activity relative to AIP-III", "setting": "[8]; gfp reporter, group-III", "result": "at least 10 fold"},
      {"measurement": "fold more active inhibitor than tAIP-I D2A", "setting": "[8]; gfp reporter, group-III", "result": "~10", "unit": "fold"},
      {"measurement": "fold increase of inhibitory activity relative to AIP-III", "setting": "[9]; gfp reporter, group-IV", "result": "at least 10 fold"},
      {"measurement": "fold more active inhibitor than tAIP-I D2A", "setting": "[9]; gfp reporter, group-IV", "result": "~10", "unit": "fold"},
      {"measurement": "reduction of TSST-1 levels", "setting": "[2]", "result": 80, "unit": "%"},
      {"measurement": "IC50", "setting": "[3]; read-out: AgrC-III IC50, 200 fM − 10 μM", "result": 0.163, "unit": "nM"},
      {"measurement": "fold more active than tAIP-I D2A in the hemolysis assay", "setting": "[5]; group-II strain", "result": 40, "unit": "fold"},
      {"measurement": "fold more active than tAIP-I D2A in the hemolysis assay", "setting": "[6]; group IV strain", "result": "three"},
      {"measurement": "IC50", "setting": "[6]", "result": 0.106, "unit": "nM"}
    ]}
  ]
}
